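Grown in 96-well plates, cells were treated for 48 hours with each compound at five concentrations. Insufficient inhibition: endpoint recorded as highest concentration tested. At the GI50, growth is halved.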 Calls of active or inactive are those of the source. Rule as the data show it: active = GI50 up to about 1.1 µM and inactive = higher.

Test systems include SF-268; EKVX; A549; LOX IMVI; NCI-H460; HOP-92; K562; HCC 2998; 786-0; NCI/ADR-RES; DU-145; HCT-116; SW-620; OVCAR-5; MDA-N; HT-29; NCI-H23; MDA-MB-435; OVCAR-8; UO-31.
Common to all, as to assay: inhibition of tumour cell growth, NCI panel, 48 h

Regarding `NC(=O)NC(=O)c1ccc(NC(=O)CBr)cc1`, the GI50 was 1.4 µM (inactive) in the experiment with SF-268; 2.38 µM (inactive) in the experiment on EKVX; 14.1 µM (inactive) in the experiment on A549; 0.558 µM (active) with LOX IMVI; 4.66 µM (inactive) with NCI-H460; 1.6 µM (inactive) in the experiment on HOP-92. For the same compound, the GI50 was 0.705 µM (active) in the experiment on K562; 12.8 µM (inactive) with HCC 2998; 0.278 µM (active) in the experiment with 786-0; 2.56 µM (inactive) with NCI/ADR-RES; 2.44 µM (inactive) in the experiment on DU-145; 0.83 µM (active) in the experiment on HCT-116. The GI50 in the experiment on SW-620 was 0.344 µM (active); with OVCAR-5 it was 2.75 µM (inactive); in the experiment with MDA-N, 2.07 µM (inactive); in the experiment with HT-29, 1.73 µM (inactive); with NCI-H23 it was 2.06 µM (inactive); in the experiment on MDA-MB-435, 1.53 µM (inactive). For the same compound, the figures for the GI50 with OVCAR-8 and in the experiment on UO-31 were 2.26 µM (inactive) and 1.42 µM (inactive), respectively.

As to `CCOC(=O)c1cc2cc3c4c(c2oc1=O)CCCN4CCC3`, the GI50 in the experiment with SF-268 is 19.2 µM (inactive); in the experiment with EKVX, 12 µM (inactive); in the experiment with A549, 21.5 µM (inactive); with LOX IMVI it was 26.1 µM (inactive); with NCI-H460, 48.3 µM (inactive); with HOP-92, 17.1 µM (inactive). In addition, the GI50 in the experiment on K562 was 38.3 µM (inactive); in the experiment on HCC 2998 it was 78.9 µM (inactive); in the experiment with 786-0, 40 µM (inactive); in the experiment on NCI/ADR-RES it was 22.2 µM (inactive); in the experiment with DU-145, 31.6 µM (inactive); with HCT-116, 27 µM (inactive). Besides, the GI50 with SW-620 was 67.9 µM (inactive); in the experiment on OVCAR-5, > 100 µM (inactive); in the experiment on MDA-N it was 37.2 µM (inactive); in the experiment with HT-29 it was 31.8 µM (inactive); in the experiment with NCI-H23, 30.1 µM (inactive); in the experiment on MDA-MB-435, 28.3 µM (inactive). For the same compound, the GI50 with OVCAR-8 is 22.1 µM (inactive); in the experiment with UO-31, 25.9 µM (inactive).

As for `COc1cc2cc(C(=O)N3CC(COS(C)(=O)=O)c4ccc(NC(=O)OCc5ccccc5)cc43)[nH]c2c(OC)c1OC` (stereo not given), the GI50 in the experiment on SF-268 is > 100 µM (inactive); in the experiment on EKVX, > 100 µM (inactive); in the experiment on A549, > 100 µM (inactive); in the experiment on LOX IMVI it was > 100 µM (inactive); in the experiment on NCI-H460 it was 91.8 µM (inactive); with HOP-92, 9.59 µM (inactive). The GI50 in the experiment on K562 was > 100 µM (inactive); in the experiment on HCC 2998, 84.3 µM (inactive); in the experiment with 786-0 it was > 100 µM (inactive); in the experiment with NCI/ADR-RES it was > 100 µM (inactive); in the experiment on DU-145 it was > 100 µM (inactive); in the experiment on HCT-116, > 100 µM (inactive). The GI50 in the experiment on SW-620 is > 100 µM (inactive); with OVCAR-5, > 100 µM (inactive); in the experiment with MDA-N, > 100 µM (inactive); in the experiment with HT-29, > 100 µM (inactive); in the experiment with NCI-H23, 17 µM (inactive); with MDA-MB-435 it was > 100 µM (inactive). The GI50 in the experiment on OVCAR-8 and with UO-31 was > 100 µM (inactive) each time.
